Test results from PubChem BioAssay (NCI).
Several values for one entry are separate records, joined by “and”; a condition that tells them apart may be missing. Equal entries are not always repeated.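 Interpolation was linear, between the two tested concentrations surrounding the appropriate level; five concentrations were tested over 48 hours in 96-well plates. Abbreviation: GI50, concentration required for 50% inhibition of growth. TGI marks complete inhibition of growth.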

Key:
Assay in all cases: NCI anticancer screen, dose series, 48 h
[1] = tested on: MALME-3M melanoma
[2] = tested on: NCI-H23 lung
[3] = tested on: NCI-H522 lung
[4] = tested on: OVCAR-3 ovarian
[5] = tested on: RPMI-8226 leukemia
[6] = tested on: SF-539 CNS
[7] = tested on: SK-MEL-5 melanoma
[8] = tested on: SN12C renal
[9] = tested on: UACC-257 melanoma
[10] = tested on: UO-31 renal

| Compound | GI50 [1] | TGI [1] | GI50 [2] | TGI [2] | GI50 [3] | TGI [3] | GI50 [4] | TGI [4] | GI50 [5] | TGI [5] | GI50 [6] | TGI [6] | GI50 [7] | TGI [7] | GI50 [8] | TGI [8] | GI50 [9] | TGI [9] | GI50 [10] | TGI [10] |
| --- | --- | --- | --- | --- | --- | --- | --- | --- | --- | --- | --- | --- | --- | --- | --- | --- | --- | --- | --- | --- |
| CC(=O)N1CCN(C2=Nc3ccccc3CO2)C1=S | 26 µM | 89 µM | > 100 µM | > 100 µM | 49.2 µM | > 100 µM | 51.6 µM | > 100 µM | 41.4 µM | > 100 µM | > 100 µM | > 100 µM | 20.4 µM | 48.4 µM | > 100 µM | > 100 µM | > 100 µM | > 100 µM | > 100 µM | > 100 µM |
| OCCOc1ccc(-c2cc(-c3ccccn3)nc(-c3ccccn3)c2)cc1 |  | 17.5 µM |  | > 100 µM |  | 14.1 µM |  | 6.67 µM |  | > 96.7 µM |  | 2.26 µM |  | 8.54 µM |  | > 100 µM |  | 12.9 µM |  | 1 µM |
| Cc1ccc(C)c(NC(=O)C(=O)CC(=O)C2CCOC2=O)c1 (stereo not given) |  | > 100 µM |  | > 100 µM |  | > 100 µM |  | > 100 µM |  | > 100 µM |  | > 100 µM |  | > 100 µM |  | > 100 µM |  | > 100 µM |  | > 100 µM |
| COc1ccc(/C(=N/NC(N)=O)C2(O)C(=O)Nc3ccc([N+](=O)[O-])cc32)cc1 (stereo not given) |  | > 10 µM |  | 31.6 µM |  | 41.9 µM |  | 33.1 µM |  | 74.1 µM |  | 31.3 µM |  | 77.2 µM |  | > 10 µM |  | 39.4 µM |  | 34.8 µM |
| C=CC(=O)Nc1ccc(Nc2nccc(-c3ccc(N4CCCC4)c(C#N)c3)n2)cc1 | 5.06 µM | 20 µM | > 25 µM | > 25 µM | 9.97 µM | > 25 µM | > 25 µM | > 25 µM | 10.1 µM | > 25 µM | 6.88 µM | > 25 µM | 17.9 µM | > 25 µM | 15.8 µM | > 25 µM | 5.37 µM | 17 µM | 1.06 µM | > 25 µM |
| CC(C)[C@](O)(c1ccc2cc(OC(F)F)c(OC(F)F)cc2c1)c1cn[nH]n1 | 18.4 µM and 21 µM | 42.6 µM and 44.7 µM | 16.8 µM and 15.8 µM | 40.1 µM and 35.2 µM | 16.4 µM and 14.8 µM | 36.5 µM and 35.4 µM | 18.7 µM and 14 µM | 36.6 µM and 29.1 µM | 24.9 µM and 18.2 µM | 68.4 µM and 53 µM | 16.5 µM and 16.2 µM | 32.4 µM and 32.3 µM | 17.1 µM and 16.9 µM | 30.9 µM and 30.7 µM | 19.2 µM and 15.6 µM | 36.8 µM and 32.2 µM | 21.5 µM and 21.8 µM | 47.7 µM and 46.1 µM | 12.8 µM and 12.1 µM | 29.1 µM and 30.1 µM |
| Cc1ccc(C(=O)O/N=C2/CCCC/C2=C\c2ccccc2)cc1 |  | > 100 µM |  | > 100 µM |  | 31.7 µM |  | > 100 µM |  | > 100 µM |  | > 100 µM |  | > 100 µM |  | > 100 µM |  | > 100 µM |  | 31.5 µM |
| CCCN(CCC)CCCNCc1cc(I)cc(C)c1O | 16.5 µM | 31.5 µM | 15.2 µM | 33.5 µM | 16.9 µM | 31.1 µM | 14.8 µM | 27.9 µM | 10.8 µM | 27.2 µM | 14.7 µM | 27.9 µM | 6.83 µM | 19.3 µM | 28.7 µM | > 100 µM | 11.5 µM | 27.7 µM | 17.2 µM | 53.1 µM |
| C1OCC2S[C@@H]3COCO[C@@H]3C2O1 (stereo not given in full) |  | > 100 µM |  | > 100 µM |  | > 100 µM |  | > 100 µM |  | > 100 µM |  | > 100 µM |  | > 100 µM |  | > 100 µM |  | > 100 µM |  | > 100 µM |
| CO[C@H](C(=O)[C@@H](O)[C@@H](C)O)[C@@H]1Cc2cc3cc(O[C@H]4C[C@@H](O[C@H]5C[C@@H](O)[C@H](O)C(C)O5)[C@H](O)C(C)O4)c(C)c(O)c3c(O)c2C(=O)[C@H]1O[C@H]1C[C@@H](O[C@H]2C[C@@H](O[C@H]3C[C@@H](OC)[C@H](O)C(C)O3)[C@@H](O)C(C)O2)C(O)(O)C(C)O1 (stereo not given in full) | 0.0532 µM | 2.03 µM | 0.176 µM | 4.22 µM | 0.0168 µM | 0.304 µM | 0.24 µM | 7.23 µM | 0.182 µM | > 11.4 µM | 0.0938 µM | 1.68 µM | 0.0208 µM | 0.467 µM | 0.112 µM | > 25 µM | 0.0371 µM | 0.511 µM | 0.209 µM | 2.84 µM |
| O=C(O)CSCc1cccc2ccccc12 |  | > 100 µM |  | > 100 µM |  | > 100 µM |  | > 100 µM |  | > 100 µM |  | > 100 µM |  | > 100 µM |  | > 100 µM |  | > 100 µM |  | > 100 µM |
| O=C(O)c1ccccc1Cc1ccco1 |  | > 100 µM |  | > 100 µM |  | > 100 µM |  | > 100 µM |  | > 100 µM |  | > 100 µM |  | > 100 µM |  | > 100 µM |  | > 100 µM |  | > 100 µM |
